Molecules are shown by their SMILES. In brackets after ≈: the same amount, converted by molar mass.

The subject of assay [1] is Bacteroides fragilis (ATCC 25285). Nature of the assay: Antibacterial activity, CFU viability. In kind it is cell-based. The settings on record: ATCC25285, mean of two determinations, read-out: Mean IC50 ± SD. The protocol:
(§1) Pure standard microbial isolates collected from King Khaled University Hospital were tested in this study, including Enterococcus faecalis (ATCC 29122) as Gram positive bacteria and Escherichia coli (ATCC 25922) and Bacteroides fragilis (ATCC 25285) as Gram negative bacteria. Fresh cultures of each microorganism were grown on nutrient agar plates (Oxoid, UK), of which small inoculums were suspended in 5 mL nutrient broth for bacterial suspension preparation of 0.5MacFarland. Bacterial viability was investigated by estimating the colony-forming unit (CFU) ability of the bacteria incubated at different time intervals without or with appropriate amounts of the compound that were mixed with 2 × 10^7 CFU/mL in sterile BHI broths and were incubated under shaking for 60 min at 37 °C. Samples were serially diluted into sterile BHI broths, streaked onto media agar plates, and incubated for 24 h at 37 °C. The antibacterial potency of tested compounds was expressed as the residual number of CFU with reference to the initial inoculums. […] Ampicillin (1 mg/mL) was used as a positive standard reference.

In assay [2] the test system is Enterococcus faecalis (ATCC 29122). Nature of the assay: Antibacterial activity, CFU viability. In kind it is cell-based. The settings on record: ATCC29122, mean of two determinations, read-out: Mean IC50 ± SD. On the procedure:
as §1

Assay [3] deals with Escherichia coli (ATCC 25922). Nature of the assay: Antibacterial activity, CFU viability. The settings on record: ATCC25922, mean of two determinations, read-out: Mean IC50 ± SD. In kind it is cell-based. On the procedure: as §1
In another assay the target is T1, COX-2 (Homo sapiens, UniProt P35354).
T1 construct: purchased Cayman Chemical Company 701080
T1 sequence (P35354 18-604): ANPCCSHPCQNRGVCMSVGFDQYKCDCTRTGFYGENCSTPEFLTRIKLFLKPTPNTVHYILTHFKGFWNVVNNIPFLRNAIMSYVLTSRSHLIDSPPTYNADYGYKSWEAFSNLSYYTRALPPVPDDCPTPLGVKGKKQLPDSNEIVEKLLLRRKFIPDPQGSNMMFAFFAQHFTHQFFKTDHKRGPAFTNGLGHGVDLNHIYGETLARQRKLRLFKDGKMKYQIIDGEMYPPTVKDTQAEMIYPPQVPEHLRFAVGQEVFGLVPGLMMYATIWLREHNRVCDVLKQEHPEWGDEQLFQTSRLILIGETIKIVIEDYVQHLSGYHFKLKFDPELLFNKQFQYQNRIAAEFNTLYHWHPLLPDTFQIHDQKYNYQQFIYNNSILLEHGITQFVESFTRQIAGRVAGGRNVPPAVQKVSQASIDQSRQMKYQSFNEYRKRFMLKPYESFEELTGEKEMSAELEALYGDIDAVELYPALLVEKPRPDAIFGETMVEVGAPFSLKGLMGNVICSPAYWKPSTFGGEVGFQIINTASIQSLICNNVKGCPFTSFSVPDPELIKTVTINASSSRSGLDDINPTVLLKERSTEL
Nature of the assay: Cyclooxygenase (COX-2) inhibition assay (Cayman kit 701080). The assay is classed as biochemical. The settings on record: for inhibition at 100 µg/mL: read-out: Mean Inhibition % at 100 µg/ml ± SD; for inhibition at 200 µg/mL: read-out: Mean Inhibition % at 200 µg/ml ± SD. The protocol:
The compounds were resuspended in 100% DMSO at a final concentration of 10 mg/mL. […] The inhibitory activity was expressed as the inhibition percentage, which was determined by comparison with a control experiment. IC50 values were deduced from the curves.

Assay [4] deals with purified recombinant human LDHA protein (Homo sapiens, UniProt P00338). Nature of the assay: Lactate dehydrogenase-A (LDHA) inhibition assay, NADH consumption. In kind it is biochemical. The settings on record: for inhibition at 100 µg/mL / inhibition at 200 µg/mL: LDHA; for inhibition at 100 µg/mL: read-out: Mean Inhibition % at 100 µg/ml ± SD; for inhibition at 200 µg/mL: read-out: Mean Inhibition % at 200 µg/ml ± SD; for fold by which (6e) is more potent than the labelled compound (LDHA inhibition efficiency): 200 µg/mL, comparator 6e. The protocol: LDHA inhibition activity was investigated by measuring the amounts of consumed NADH as described by Kim and his group. Briefly, different concentrations of each compound (50, 100, 200, and 300 µg) were incubated in buffer containing 20 mM of HEPES-K+ (pH 7.2), 20 μM of NADH, 2 mM of pyruvate, and 10 ng of purified recombinant human LDHA protein for 10 min. The fluorescence of NADH, which has an excitation wavelength of 340 nm and emission wavelength of 460 nm, was detected using a Spectrofluorometer.

What is called IC50 is the concentration needed to halve the response being measured. `CC1(C)S[C@@H]2[C@H](NC(=O)[C@H](N)c3ccccc3)C(=O)N2[C@H]1C(=O)O` [Ampicillin, ampicillin, reference compound]: the IC50 stood at 16.1 µg/mL (≈ 46.2 µM) in assay [1], 12.8 µg/mL (≈ 36.5 µM) in assay [2] and 20.2 µg/mL (≈ 58 µM) in assay [3].
Turning to `O=c1[nH]c2ccccc2[nH]c1=O` [Compound 1], the IC50 in assay [1] stood at 19.4 ± 1.48 µg/mL (≈ 119 µM); in assay [2] it was 20.2 ± 1.06 µg/mL (≈ 125 µM); in assay [3], 25.9 ± 0.778 µg/mL (≈ 159 µM). The inhibition at 100 µg/mL at COX-2 came to 30.9 ± 2.62%; in assay [4], 33.8 ± 2.55%. In addition, the values for the inhibition at 200 µg/mL (on COX-2; in assay [4]) were 48.1% and 68.2%, respectively.
With `NN=c1[nH]c2ccccc2[nH]c1=O` [Compound 2, 3-hydrazineylidene-3,4-dihydro quinoxalin-2(1H)-one], the IC50 in assay [1] came to 14.5 ± 0.99 µg/mL (≈ 82.3 µM); in assay [2], 13.6 ± 0.566 µg/mL (≈ 77.2 µM); in assay [3], 13.7 ± 1.34 µg/mL (≈ 77.5 µM). Also, the inhibition at 100 µg/mL was determined as 7.55 ± 0.778% on COX-2 and 26.7 ± 1.84% in assay [4]. Further, the inhibition at 200 µg/mL turned out to be 15.4 ± 2.19% on COX-2 and 47.1% in assay [4].
With `COc1cc(C=NNc2nc3ccccc3[nH]c2=O)cc(Cl)c1O` [Compound 4a, 3-[N’-(3-Chloro-4-hydroxy-5-methoxy-benzylidene)-hydrazino]-1H-quinoxalin-2-one], the figures for the IC50 in assay [1], in assay [2] and in assay [3] were 13.3 ± 0.849 µg/mL (≈ 38.6 µM), 27 ± 2.83 µg/mL (≈ 78.3 µM) and 15 ± 0.566 µg/mL (≈ 43.5 µM), respectively. Also, the inhibition at 100 µg/mL was determined as 4.65 ± 0.495% at COX-2 and 20.3 ± 1.63% in assay [4]. Further, the inhibition at 200 µg/mL amounted to 12.1% on COX-2 and 28.2% in assay [4].
Turning to `COc1cc(C=NNc2nc3ccccc3[nH]c2=O)cc(I)c1O` [Compound 4b, 3-[N’-(4-Hydroxy-3-iodo-5-methoxy-benzylidene)-hydrazino]-1H-quinoxalin-2-one], the IC50 turned out to be 40.6 ± 2.33 µg/mL (≈ 93.2 µM) in assay [1], 30.3 ± 2.4 µg/mL (≈ 69.5 µM) in assay [2] and 13.6 ± 0.849 µg/mL (≈ 31.2 µM) in assay [3]. Moreover, the figures for the inhibition at 100 µg/mL (on COX-2; in assay [4]) were 12.3 ± 0.919% and 27.4 ± 2.4%, respectively. The inhibition at 200 µg/mL at COX-2 stood at 21.1%; in assay [4], 35.4%.
`COc1ccc2cc(C=NNc3nc4ccccc4[nH]c3=O)ccc2c1` [Compound 4e, 3-[N’-(6-Methoxy-naphthalen-2-ylmethylene)-hydrazino]-1H-quinoxalin-2-one]: the IC50 in assay [1] turned out to be 27.1 ± 1.84 µg/mL (≈ 78.7 µM); in assay [2] it was 18.2 ± 0.99 µg/mL (≈ 52.8 µM); in assay [3], 31.4 ± 1.48 µg/mL (≈ 91.3 µM). For the same molecule, the inhibition at 100 µg/mL at COX-2 was 30.3 ± 1.84%; in assay [4] it was 21.1 ± 2.19%. Also, the inhibition at 200 µg/mL on COX-2 came to 54%; in assay [4], 31.2%.
In the case of `Cc1nc2ccc(Cl)cc2c(=O)n1N` [Compound 5b], the IC50 in assay [1] was 37 ± 2.83 µg/mL (≈ 176 µM); in assay [2], 27.5 ± 2.12 µg/mL (≈ 131 µM); in assay [3], 13.6 ± 1.48 µg/mL (≈ 64.6 µM). In addition, the inhibition at 100 µg/mL was found to be 5.7 ± 0.99% at COX-2 and 11.8 ± 1.06% in assay [4]. Besides, the figures for the inhibition at 200 µg/mL (on COX-2; in assay [4]) were 9.05% and 21.2%, respectively. In addition, the “fold by which (6e) is more potent than the labelled compound (LDHA inhibition efficiency)” value in assay [4] stood at 3.6 fold.
With `COc1ccc2cc(/C=N/n3c(C)nc4ccc(Cl)cc4c3=O)ccc2c1` [Compound 6c, 6-Chloro-3-oro-3-[(6-methoxy-naphthalen-2-ylmethylene)-amino]-2-methyl-3H-quinazolin-4-one], the IC50 in assay [1] stood at 30.1 ± 0.636 µg/mL (≈ 79.5 µM); in assay [2] it was 20.4 ± 1.2 µg/mL (≈ 54.1 µM); in assay [3], 26.9 ± 1.56 µg/mL (≈ 71.2 µM). The inhibition at 100 µg/mL at COX-2 came out at 23.8 ± 2.55%; in assay [4], 13.3 ± 0.919%. Besides, the inhibition at 200 µg/mL on COX-2 came out at 36.9 ± 1.63%; in assay [4], 23%. Further, the “fold by which (6e) is more potent than the labelled compound (LDHA inhibition efficiency)” value in assay [4] is listed as 3.3 fold.
